Several values for one entry are separate records, joined by “and”; a condition that tells them apart may be missing. Equal values may be shown once. Toxic doses and inconclusive results are not listed. Rule for the calls: active = survival T/C of 150% or more; inactive = T/C below 125% in these data.
Test system: CD2F1 mice, L1210 leukemia ip, survival T/C
Assay: NCI In Vivo Anticancer Drug Screen. Data for tumor model L1210 Leukemia (intraperitoneal) in CD2F1 (CDF1) mice
Conditions: higher = longer survival
Procedure, shortened: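 Vehicle-treated tumor-bearing mice served as controls (C) for compound-treated mice (T). Reported figure is T divided by C.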

[1] = endpoint: mean survival time, dose: 100.0 mg/kg/injection, schedule: Q04DX002 (ip), vehicle: saline with Tween-80
[2] = endpoint: mean survival time, dose: 200.0 mg/kg/injection, schedule: Q04DX002 (ip), vehicle: saline with Tween-80
[3] = endpoint: mean survival time, dose: 100.0 mg/kg/injection, schedule: Q04DX003 (ip), vehicle: saline with Tween-80
[4] = endpoint: mean survival time, dose: 200.0 mg/kg/injection, schedule: Q04DX003 (ip), vehicle: saline with Tween-80
[5] = endpoint: mean survival time, dose: 400.0 mg/kg/injection, schedule: Q04DX003 (ip), vehicle: saline with Tween-80
[6] = endpoint: mean survival time, dose: 400.0 mg/kg/injection, schedule: Q04DX002 (ip), vehicle: saline with Tween-80
[7] = endpoint: mean survival time, dose: 100.0 mg/kg/injection, schedule: Q01DX009 (ip), vehicle: saline with Tween-80
[8] = endpoint: mean survival time, dose: 200.0 mg/kg/injection, schedule: Q01DX009 (ip), vehicle: saline with Tween-80
[9] = endpoint: mean survival time, dose: 400.0 mg/kg/injection, schedule: Q01DX009 (ip), vehicle: saline with Tween-80

Measured: T/C

NC(=O)C1=CC2C3C=CC2(O)C(=O)OC3O1 (stereo not given)
inactive: endpoint: median survival time, dose: 1.9 mg/kg/injection, schedule: Q01DX009 (ip), vehicle: Klucel (hydroxypropylcellulose) (HPC) 108 % of control | endpoint: median survival time, dose: 3.75 mg/kg/injection, schedule: Q01DX009 (ip), vehicle: Klucel (hydroxypropylcellulose) (HPC) 120 % of control | endpoint: median survival time, dose: 7.5 mg/kg/injection, schedule: Q01DX009 (ip), vehicle: Klucel (hydroxypropylcellulose) (HPC) 118 % of control | endpoint: median survival time, dose: 15.0 mg/kg/injection, schedule: Q01DX009 (ip), vehicle: Klucel (hydroxypropylcellulose) (HPC) 117 % of control | endpoint: median survival time, dose: 30.0 mg/kg/injection, schedule: Q01DX009 (ip), vehicle: Klucel (hydroxypropylcellulose) (HPC) 121 % of control and 110 % of control

c1cncc(-c2nnc(-c3cccnc3)o2)c1
inactive: endpoint: mean survival time, dose: 1.56 mg/kg/injection, schedule: Q04DX002 (ip), vehicle: saline with Tween-80 101 % of control | endpoint: mean survival time, dose: 3.13 mg/kg/injection, schedule: Q04DX002 (ip), vehicle: saline with Tween-80 104 % of control | endpoint: mean survival time, dose: 6.25 mg/kg/injection, schedule: Q04DX002 (ip), vehicle: saline with Tween-80 104 % of control | endpoint: mean survival time, dose: 12.5 mg/kg/injection, schedule: Q04DX002 (ip), vehicle: saline with Tween-80 104 % of control | [1] 87 % of control | [2] 87 % of control

COc1ccc([N+](=O)[O-])cc1CO/N=C(/CCC(=O)O)C(=O)O
inactive: [3] 101 % of control | [4] 106 % of control | [5] 101 % of control

CC(C)(C)C(=O)OCC1OC(n2ccc(O)cc2=O)C(O)C1O (stereo not given)
active: endpoint: median survival time, dose: 67.0 mg/kg/injection, schedule: Q01DX009 (ip), vehicle: saline + Tween-80 + alcohol 168 % of control | endpoint: median survival time, dose: 100.0 mg/kg/injection, schedule: Q01DX009 (ip), vehicle: saline + Tween-80 + alcohol 163 % of control | endpoint: median survival time, dose: 150.0 mg/kg/injection, schedule: Q01DX009 (ip), vehicle: saline + Tween-80 + alcohol 150 % of control | endpoint: median survival time, dose: 225.0 mg/kg/injection, schedule: Q01DX009 (ip), vehicle: saline + Tween-80 + alcohol 154 % of control

O=C(Nc1ccc(NC(=O)c2ccccc2)c(Sc2ccccc2)c1Sc1ccccc1)c1ccccc1
inactive: endpoint: mean survival time, dose: 100.0 mg/kg/injection, schedule: Q01DX001 (ip), vehicle: saline with Tween-80 89 % of control | endpoint: mean survival time, dose: 200.0 mg/kg/injection, schedule: Q01DX001 (ip), vehicle: saline with Tween-80 89 % of control | endpoint: mean survival time, dose: 400.0 mg/kg/injection, schedule: Q01DX001 (ip), vehicle: saline with Tween-80 86 % of control

C1CCC2(CC1)OCCS2
inactive: endpoint: mean survival time, dose: 100.0 mg/kg/injection, schedule: Q01DX001 (ip), vehicle: saline 96 % of control | endpoint: mean survival time, dose: 200.0 mg/kg/injection, schedule: Q01DX001 (ip), vehicle: saline 94 % of control

CCCCS(=O)CC(CO)NC(=O)/C=C/c1c(C)[nH]c(=O)[nH]c1=O (stereo not given)
inactive: endpoint: mean survival time, dose: 0.63 mg/kg/injection, schedule: Q01DX009 (ip), vehicle: water 115 % of control and 105 % of control | endpoint: mean survival time, dose: 1.25 mg/kg/injection, schedule: Q01DX009 (ip), vehicle: water 112 % of control | endpoint: mean survival time, dose: 2.5 mg/kg/injection, schedule: Q01DX009 (ip), vehicle: water 118 % of control and 121 % of control | endpoint: mean survival time, dose: 5.0 mg/kg/injection, schedule: Q01DX009 (ip), vehicle: water 116 % of control | endpoint: mean survival time, dose: 10.0 mg/kg/injection, schedule: Q01DX009 (ip), vehicle: water 98 % of control

Cc1ccccc1NC(=O)Oc1c(Cl)cc(Cl)c2ccccc12
inactive: [1] 89 % of control | [2] 93 % of control | [6] 101 % of control

CSc1nnc(Sc2ccccc2)c(SC)n1
inactive: endpoint: mean survival time, dose: 75.0 mg/kg/injection, schedule: Q01DX001 (ip), vehicle: saline 101 % of control | endpoint: mean survival time, dose: 150.0 mg/kg/injection, schedule: Q01DX001 (ip), vehicle: saline 98 % of control

Cc1cc(N(CCOS(C)(=O)=O)CCOS(C)(=O)=O)ccc1N=O
inactive: endpoint: mean survival time, dose: 0.25 mg/kg/injection, schedule: Q01DX015 (ip), vehicle: saline 119 % of control | endpoint: mean survival time, dose: 0.5 mg/kg/injection, schedule: Q01DX015 (ip), vehicle: saline 121 % of control | endpoint: mean survival time, dose: 1.0 mg/kg/injection, schedule: Q01DX010 (ip), vehicle: saline 101 % of control | endpoint: mean survival time, dose: 1.0 mg/kg/injection, schedule: Q01DX015 (ip), vehicle: saline 116 % of control | endpoint: mean survival time, dose: 2.0 mg/kg/injection, schedule: Q01DX015 (ip), vehicle: saline 97 % of control

Cc1ccc(C2c3c(nc[nH]c3=O)OC2(C)C)cc1 (stereo not given)
inactive: [1] 114 % of control | [2] 106 % of control | [6] 111 % of control

COc1ccc(S(=O)(=O)F)cc1NC(=O)COc1cccc(Cl)c1
inactive: [3] 96 % of control | [4] 97 % of control | [5] 103 % of control

[N-]=[N+]=CC(=O)CCC(=O)C=[N+]=[N-]
inactive: endpoint: mean survival time, dose: 12.5 mg/kg/injection, schedule: Q01DX009 (ip), vehicle: other 106 % of control | endpoint: mean survival time, dose: 25.0 mg/kg/injection, schedule: Q01DX009 (ip), vehicle: other 90 % of control

CCCCCCCCc1ccc(O)c(Cl)c1
inactive: [3] 94 % of control | [4] 91 % of control | [5] 94 % of control

Nc1cc2c(c[n+](Cc3ccccc3)c3ccccc23)c2ccccc12
inactive: endpoint: mean survival time, dose: 0.39 mg/kg/injection, schedule: Q04DX003 (ip), vehicle: other 104 % of control | endpoint: mean survival time, dose: 0.78 mg/kg/injection, schedule: Q04DX003 (ip), vehicle: other 98 % of control | endpoint: mean survival time, dose: 1.56 mg/kg/injection, schedule: Q04DX003 (ip), vehicle: other 104 % of control | endpoint: mean survival time, dose: 6.25 mg/kg/injection, schedule: Q04DX003 (ip), vehicle: other 91 % of control

NC(=O)NC1CC1(c1ccccc1)c1ccccc1 (stereo not given)
inactive: endpoint: mean survival time, dose: 177.0 mg/kg/injection, schedule: Q01DX001 (ip), vehicle: other 94 % of control | endpoint: mean survival time, dose: 267.0 mg/kg/injection, schedule: Q01DX001 (ip), vehicle: other 96 % of control | endpoint: mean survival time, dose: 400.0 mg/kg/injection, schedule: Q01DX001 (ip), vehicle: other 100 % of control

Nc1ccn(C2CC(N)C(CO)O2)c(=O)n1 (stereo not given)
active: endpoint: median survival time, dose: 5.0 mg/kg/injection, schedule: Q06HX018 (ip), vehicle: water 150 % of control | endpoint: median survival time, dose: 10.0 mg/kg/injection, schedule: Q06HX018 (ip), vehicle: water 154 % of control and 162 % of control | endpoint: median survival time, dose: 20.0 mg/kg/injection, schedule: Q06HX018 (ip), vehicle: water 198 % of control and 200 % of control | endpoint: median survival time, dose: 40.0 mg/kg/injection, schedule: Q06HX018 (ip), vehicle: water 152 % of control and 174 % of control

O/N=C/c1ccccc1O.O/N=C/c1ccccc1O.[Cu]
inactive: endpoint: mean survival time, dose: 1.56 mg/kg/injection, schedule: Q01DX009 (ip), vehicle: saline with Tween-80 98 % of control and 103 % of control | endpoint: mean survival time, dose: 3.12 mg/kg/injection, schedule: Q01DX009 (ip), vehicle: saline with Tween-80 102 % of control and 106 % of control | endpoint: mean survival time, dose: 6.25 mg/kg/injection, schedule: Q01DX009 (ip), vehicle: saline with Tween-80 93 % of control and 101 % of control | endpoint: mean survival time, dose: 12.5 mg/kg/injection, schedule: Q01DX009 (ip), vehicle: saline with Tween-80 100 % of control and 108 % of control | endpoint: mean survival time, dose: 25.0 mg/kg/injection, schedule: Q01DX009 (ip), vehicle: saline with Tween-80 114 % of control and 100 % of control

CC(=O)OC1CCCCC1OC(C)=O (stereo not given)
inactive: endpoint: mean survival time, dose: 50.0 mg/kg/injection, schedule: Q01DX009 (ip), vehicle: saline with Tween-80 92 % of control | [7] 92 % of control | [8] 103 % of control

CCOC(=O)N1C(=O)C2C3CCC(O3)C2C1=O (stereo not given)
inactive: endpoint: mean survival time, dose: 25.0 mg/kg/injection, schedule: Q04DX002 (ip), vehicle: saline with Tween-80 104 % of control | endpoint: mean survival time, dose: 50.0 mg/kg/injection, schedule: Q04DX002 (ip), vehicle: saline with Tween-80 90 % of control | [1] 109 % of control

OC1CCCN(c2c3ccccc3nc3ccccc23)C1 (stereo not given)
inactive: [1] 100 % of control | [2] 92 % of control | [6] 100 % of control

O=C1c2ccccc2C(=O)N1C(=S)N1C(=O)c2ccccc2C1=O
inactive: [1] 96 % of control | [2] 92 % of control | [6] 92 % of control

CCCCCCCC(=O)N1C(=O)CCC1C(=O)O (stereo not given)
inactive: endpoint: mean survival time, dose: 100.0 mg/kg/injection, schedule: Q01DX001 (ip), vehicle: Klucel (hydroxypropylcellulose) (HPC) 100 % of control | endpoint: mean survival time, dose: 200.0 mg/kg/injection, schedule: Q01DX001 (ip), vehicle: Klucel (hydroxypropylcellulose) (HPC) 100 % of control | endpoint: mean survival time, dose: 400.0 mg/kg/injection, schedule: Q01DX001 (ip), vehicle: Klucel (hydroxypropylcellulose) (HPC) 104 % of control

COc1ccc(C(=O)C(C)(C)C)cc1
inactive: [1] 108 % of control | [2] 97 % of control

CCCC/C=C/C(O)CC (stereo not given)
inactive: [3] 98 % of control | [4] 102 % of control | [5] 96 % of control

O=[N+]([O-])c1ccc(C(O)(c2ccc([N+](=O)[O-])cc2)c2ccc([N+](=O)[O-])cc2)cc1
inactive: [7] 96 % of control | [3] 98 % of control | [8] 95 % of control | [4] 97 % of control | [9] 96 % of control | [5] 97 % of control

Nc1ccccc1CCc1ccccc1N
inactive: [3] 100 % of control | [4] 102 % of control | [5] 93 % of control

O=C(NC(O)C(Cl)(Cl)Cl)c1ccccc1 (stereo not given)
inactive: [7] 94 % of control | [3] 107 % of control | [8] 89 % of control | [4] 107 % of control | [9] 91 % of control | [5] 107 % of control

From PubChem BioAssay AID256 (DTP/NCI, 2004)
